Results from the SangsterLogP compilation.

logP | Structure (SMILES)
3.9 | C(Cc1ccccc1)=NN=c1ccn(Cc2ccccc2)cc1
3.8 | Clc1ccc(C=NN=c2ccn(Cc3ccccc3)cc2)cc1
3.8 | Clc1ccccc1C=NN=c1ccn(Cc2ccccc2)cc1
4 | O=[N+]([O-])c1ccc(C=NN=c2ccn(Cc3c(Cl)cccc3Cl)cc2)cc1
4 | Cc1ccc(C=NN=c2ccn(CCc3ccccc3)cc2)cc1
3.8 | O=[N+]([O-])c1ccc(C=NN=c2ccn(Cc3ccccc3)cc2)cc1
3.8 | O=[N+]([O-])c1ccc(C=NN=c2ccn(CC=Cc3ccccc3)cc2)cc1
3.3 | Cc1cccc(C)c1C=NN=c1ccn(CCc2ccccc2)cc1
4.3 | C(=NN=c1ccn(CCc2ccccc2)cc1)c1cccc2ccccc12
4.2 | C(=NN=c1ccn(Cc2ccccc2)cc1)c1cccc2ccccc12
3.3 | Oc1ccccc1C=NN=c1ccn(CCc2ccccc2)cc1
3.4 | COc1ccccc1C=NN=c1ccn(CCc2ccccc2)cc1
3.2 | Oc1ccccc1C=NN=c1ccn(Cc2ccccc2)cc1
4.2 | C(=NN=c1ccn(Cc2ccccc2)cc1)c1ccc2ccccc2c1
3.3 | Oc1ccccc1C=NN=c1ccn(Cc2c(Cl)cccc2Cl)cc1
4.4 | C(=NN=c1ccn(CCCCc2ccccc2)cc1)c1c2ccccc2cc2ccccc12
4 | Clc1cccc(Cl)c1C=NN=c1ccn(CCc2ccccc2)cc1
4.3 | C(=NN=c1ccn(CCCc2ccccc2)cc1)c1ccc2ccccc2c1
3.4 | COc1ccc(C=NN=c2ccn(CCCCCN3C(=O)c4ccccc4C3=O)cc2)cc1
3.4 | COc1ccc(C=NN=c2ccn(Cc3c(Cl)cccc3Cl)cc2)cc1
4 | Clc1cccc(Cl)c1C=NN=c1ccn(CCCCCc2ccccc2)cc1
3.9 | Clc1ccccc1C=NN=c1ccn(Cc2c(Cl)cccc2Cl)cc1
3.9 | Cc1ccccc1C=NN=c1ccn(Cc2ccccc2)cc1
3.4 | COc1ccc(C=NN=c2ccn(CCc3ccccc3)cc2)cc1
3.5 | COc1ccc(C=NN=c2ccn(CCCCCc3ccccc3)cc2)cc1
4.4 | Clc1cccc(Cl)c1Cn1ccc(=NN=Cc2c3ccccc3cc3ccccc23)cc1

logP | Structure (SMILES)
4.3 | Clc1cccc(Cl)c1Cn1ccc(=NN=Cc2cccc3ccccc23)cc1
3.9 | Clc1ccc(C=NN=c2ccn(CCCc3ccccc3)cc2)cc1
4 | Cc1cccc(C)c1C=NN=c1ccn(Cc2ccccc2)cc1
4 | C(CCc1ccccc1)=NN=c1ccn(CCCc2ccccc2)cc1
4 | Cc1ccc(C)c(-n2ccc(=NN=Cc3ccc(Cl)cc3)cc2)c1
4 | Cc1ccc(C=NN=c2ccn(CCCCc3ccccc3)cc2)cc1
4.4 | C(=NN=c1ccn(Cc2ccc3ccccc3c2)cc1)c1cccc2ccccc12
3.5 | COc1ccccc1C=NN=c1ccn(CC=Cc2ccccc2)cc1
3.9 | Cc1cccc(Cn2ccc(=NN=CCCc3ccccc3)cc2)c1C
3.9 | Clc1cccc(Cl)c1C=NN=c1ccn(Cc2ccccc2)cc1
4.3 | C(=NN=c1ccn(CCCc2ccccc2)cc1)c1cccc2ccccc12
3.8 | O=[N+]([O-])c1ccc(C=NN=c2ccn(CCCc3ccccc3)cc2)cc1
4 | Clc1cccc(Cl)c1C=NN=c1ccn(CCCCc2ccccc2)cc1
3.7 | Fc1cccc(C=NN=c2ccn(Cc3ccccc3)cc2)c1
3.3 | COc1cccc(OC)c1C=NN=c1ccn(Cc2ccccc2)cc1
3.3 | Cc1cccc(C)c1C=NN=c1ccn(CCCc2ccccc2)cc1
3.9 | Fc1cccc(C=NN=c2ccn(Cc3ccccc3Br)cc2)c1
3.4 | COc1cccc(OC)c1C=NN=c1ccn(CCCc2ccccc2)cc1
3.9 | Cc1ccccc1C=NN=c1ccn(Cc2c(Cl)cccc2Cl)cc1
4.1 | Cc1ccc(C=NN=c2ccn(CCCCCc3ccccc3)cc2)cc1
3.9 | Cc1ccc(C=NN=c2ccn(Cc3c(Cl)cccc3Cl)cc2)cc1
4 | Cc1cccc(C=NN=c2ccn(CCCc3ccccc3)cc2)c1
4.3 | C(=NN=c1ccn(CCCCc2ccccc2)cc1)c1cccc2ccccc12
3.7 | Fc1ccc(C=NN=c2ccn(Cc3ccccc3)cc2)cc1
4.4 | C(=NN=c1ccn(CCCc2ccccc2)cc1)c1c2ccccc2cc2ccccc12
3.4 | COc1ccc(C=NN=c2ccn(CCCc3ccccc3)cc2)cc1

logP | Structure (SMILES)
3.9 | Clc1cccc(Cl)c1Cn1ccc(=NN=Cc2ccc(Br)cc2)cc1
3.9 | Clc1ccc(C=NN=c2ccn(Cc3ccccc3Br)cc2)cc1
3.9 | O=[N+]([O-])c1ccc(C=NN=c2ccn(CCc3ccccc3)cc2)cc1
3.9 | Clc1ccc(C=NN=c2ccn(CC=Cc3ccccc3)cc2)cc1
3.9 | Brc1ccc(C=NN=c2ccn(Cc3ccccc3)cc2)cc1
4.1 | O=C1c2ccccc2C(=O)N1CCCn1ccc(=NN=Cc2ccc3ccccc3c2)cc1
3.4 | COc1ccccc1C=NN=c1ccn(Cc2ccc3ccccc3c2)cc1
3.4 | COc1ccc(C=NN=c2ccn(CCCCc3ccccc3)cc2)cc1
3.9 | Brc1ccc(C=NN=c2ccn(CCCCc3ccccc3)cc2)cc1
4 | Fc1ccc(Br)cc1Cn1ccc(=NN=Cc2ccc(Cl)cc2)cc1
3.9 | Clc1ccccc1C=NN=c1ccn(CCCc2ccccc2)cc1
3.8 | Fc1ccc(Cn2ccc(=NN=Cc3ccc(Cl)cc3)cc2)cc1
3.3 | Cc1cccc(C)c1C=NN=c1ccn(CCCCc2ccccc2)cc1
3.9 | Cc1ccc(C=NN=c2ccn(Cc3ccccc3)cc2)cc1
3.3 | COc1ccc(C=NN=c2ccn(Cc3ccccc3)cc2)cc1
3.8 | Fc1cccc(C=NN=c2ccn(CCCc3ccccc3)cc2)c1
4.4 | C(=NN=c1ccn(CCc2ccccc2)cc1)c1c2ccccc2cc2ccccc12
4 | Cc1ccc(C=NN=c2ccn(CCCc3ccccc3)cc2)cc1
4.3 | C(=NN=c1ccn(Cc2ccccc2)cc1)c1c2ccccc2cc2ccccc12
3.4 | COc1ccccc1C=NN=c1ccn(CCCc2ccccc2)cc1
3.4 | COc1ccc(C=NN=c2ccn(CC=Cc3ccccc3)cc2)cc1
3.9 | Fc1cc(Br)ccc1Cn1ccc(=NN=CCCc2ccccc2)cc1
3.4 | Cc1cccc(C)c1C=NN=c1ccn(CCCCCc2ccccc2)cc1
3.4 | COc1cccc(OC)c1C=NN=c1ccn(CCc2ccccc2)cc1
3.6 | Cc1ccc(C=NN=c2ccn(CCCN3C(=O)c4ccccc4C3=O)cc2)cc1
4.4 | C(=NN=c1ccn(CCCCCc2ccccc2)cc1)c1cccc2ccccc12

logP | Structure (SMILES)
4 | Brc1ccc(C=NN=c2ccn(CCCCCc3ccccc3)cc2)cc1
4 | Cc1ccc(C=NN=c2ccn(CC=Cc3ccccc3)cc2)cc1
3.4 | COc1ccccc1C=NN=c1ccn(Cc2c(Cl)cccc2Cl)cc1
3.8 | Cc1cccc(C=NN=c2ccn(CCCN3C(=O)c4ccccc4C3=O)cc2)c1
3.8 | Fc1ccc(C=NN=c2ccn(CCCc3ccccc3)cc2)cc1
4 | C(CCc1ccccc1)=NN=c1ccn(Cc2ccccc2)cc1
4 | Cc1ccc(C=NN=c2ccn(Cc3ccc4ccccc4c3)cc2)cc1
3.9 | Clc1ccc(C=NN=c2ccn(Cc3ccccc3I)cc2)cc1
3.3 | COc1ccccc1C=NN=c1ccn(Cc2ccccc2)cc1
4.4 | C(=NN=c1ccn(CCCCCc2ccccc2)cc1)c1c2ccccc2cc2ccccc12
4 | Clc1cccc(Cl)c1C=NN=c1ccn(Cc2c(Cl)cccc2Cl)cc1
3.4 | COc1cccc(OC)c1C=NN=c1ccn(CCCCc2ccccc2)cc1
3.5 | COc1cccc(OC)c1C=NN=c1ccn(CCCCCc2ccccc2)cc1
3.8 | CCCCCCn1ccc(=NN=Cc2ccc(C)cc2)cc1
4 | O=[N+]([O-])c1ccc(C=NN=c2ccn(CCCCCc3ccccc3)cc2)cc1
3.9 | C(Cc1ccccc1)=NN=c1ccn(CCCc2ccccc2)cc1
3.4 | COc1cccc(OC)c1C=NN=c1ccn(-c2c(Cl)cccc2Cl)cc1
3.3 | Cc1cccc(C)c1C=NN=c1ccn(Cc2c(Cl)cccc2Cl)cc1
3.9 | Fc1ccc(Cn2ccc(=NN=CCCc3ccccc3)cc2)cc1
4 | Cc1ccccc1C=NN=c1ccn(CCCc2ccccc2)cc1
3.9 | Brc1ccccc1Cn1ccc(=NN=CCCc2ccccc2)cc1
3.9 | O=[N+]([O-])c1ccc(C=NN=c2ccn(CCCCc3ccccc3)cc2)cc1
3.9 | Clc1ccccc1C=NN=c1ccn(CCc2ccccc2)cc1
3.9 | Brc1ccc(C=NN=c2ccn(CCCc3ccccc3)cc2)cc1
3.3 | Oc1ccccc1C=NN=c1ccn(CCCc2ccccc2)cc1
